Measurements: patent publication US7183112B2, “Uses for anti-malarial therapeutic agents” (APT Pharmaceuticals, LLC, priority 1999, dated 2007)
Several values for one entry are separate records, joined by “and”; a condition that tells them apart may be missing. Equal values may be shown once.

Key:
Ascaris-sensitized sheep [1] = assay: Airway responsiveness to inhaled carbachol (PC400), Examples 1-2; format: in vivo; settings: for ORC #2 (24 P-Ag.) (carbachol reactivity, PC 400) / ORC #1 BSLN. (carbachol reactivity, PC 400): Example 2, aerosol 40 mg b.i.d. (2 mg/kg/day); for ORC #2 (24 P-Ag.) (carbachol reactivity, PC 400): 24 hour post-antigen challenge; for ORC #1 BSLN. (carbachol reactivity, PC 400): baseline
Procedure: Dose Response Curves to Inhaled Carbachol: For the carbachol dose response curves, measurements of SRL were repeated immediately after inhalation of buffer and after each administration of 10 breaths of increasing concentrations of carbachol solution (0.25%, 0.5%, 1.0%, 2.0% and 4.0% w/v). To assess airway responsiveness, the cumulative carbachol dose in breath units (BU) that increased SRL 400% over the post-buffer value (i.e. PC400) was calculated from the dose response curve. One breath unit was defined as one breath of a 1% w/v carbachol solution.
At 3 to 4 days before treatment was begun, baseline airway responsiveness, to aerosol carbachol (i.e., PC400) was determined and a baseline bronchial biopsy performed. […] The animals were treated two times a day for 3 days and then, on the fourth day, at 0.5 hours before antigen challenge and again at 4 hours after challenge. On the antigen-challenge day, SRL was measured and the animals were than treated with HCQ designated compound. SRL was remeasured 0.5 h after treatment (just before challenge) and the animals were then challenged with antigen. SRL was then remeasured immediately after.
On the fourth day, they received an additional treatment one-half hour prior to antigen challenge.

Ascaris-sensitized sheep [2] = assay: Airway hyperresponsiveness to carbachol (post/pre challenge PC400 ratio), Example 3; format: in vivo
Procedure: Dose Response Curves to Inhaled Carbachol: For the carbachol dose response curves, measurements of SRL were repeated immediately after inhalation of buffer and after each administration of 10 breaths of increasing concentrations of carbachol solution (0.25%, 0.5%, 1.0%, 2.0% and 4.0% w/v). To assess airway responsiveness, the cumulative carbachol dose in breath units (BU) that increased SRL 400% over the post-buffer value (i.e. PC400) was calculated from the dose response curve. One breath unit was defined as one breath of a 1% w/v carbachol solution. The same basic protocol was used for all studies in Example 3. This basic protocol consisted of first obtaining baseline dose response curves to aerosol carbachol 1–3 days prior to antigen challenge. Then, on the day of antigen challenge, values of specific lung resistance (SRL) were measured at baseline and, then, 30 min after drug or vehicle (0.9% saline) treatment. The animals were, then, challenged with Ascaris suum antigen and SRL was remeasured immediately after challenge, hourly from 1–6 h after challenge and on the half-hour from 6 ½–8 h after challenge. Measurements of SRL were obtained 24 h after challenge followed by the 24 h post challenge dose response curve. Studies differed in time of treatment, treatment dose or route of administration. […] A second control challenge was done 2 weeks after the drug trial to insure that the 4 day treatment regimen had no carry-over effect. […] A second control challenge was done 2 weeks after the drug trial to insure that the 4 day treatment regimen had no carry-over effect. […] A second; control challenge was done 2 weeks after the drug trial to insure that the 4 day treatment regimen had no carry-over effect. […] Challenges were separated by 2 weeks. […] On the 15th day, the animals were treated and 30 min later, challenged with antigen. On the following day, after determining the post challenge PC400, the animals resumed treatment for another 14 days, after which, they were challenged with antigen (day 29). The animals were then left untreated for 14 days, after which an antigen challenge was conducted (day 43) and, then, this procedure was repeated after another 2 weeks (day 57). For each series, a repeated measures analysis of variance was performed to see if there were overall differences between the historical control the drug trial and the 2 week follow-up control or, in the case of experiments described in series 4 and 5, amongst the doses and different times, respectively. If a significant overall effect was found, then a two-tailed paired t-test were used to assess pairwise differences. The variables assessed were the peak early airway response (maximum increase in SRL 0–4 h after challenge), peak late airway response (maximum increase in SRL between 5–8 h after antigen challenge, irrespective of when this increase occurred for each sheep in each trial) and on the ratio of post challenge PC400 to pre challenge PC400. (Note: a ratio close to 1 indicates no airway hyperresponsiveness, whereas, a ratio close to 0.5 indicates the development of airway hyperresponsiveness.). Peak responses were used because they are the most conservative estimate of the overall effect. Values in the text and figures are mean±se for 3 sheep.

Structure (SMILES): CCN(CCO)CCCC(C)Nc1ccnc2cc(Cl)ccc12 (stereo not shown) [HCQ, hydroxychloroquine]
- ORC #2 (24 P-Ag.) (carbachol reactivity, PC 400) (Ascaris-sensitized sheep [1]; Mean of 2 sheep): 15.82 breath units
- ORC #2 (24 P-Ag.) (carbachol reactivity, PC 400) (Ascaris-sensitized sheep [1]; individual sheep): 15.86 breath units and 15.77 breath units
- ORC #1 BSLN. (carbachol reactivity, PC 400) (Ascaris-sensitized sheep [1]; Mean of 2 sheep): 12.74 breath units
- ORC #1 BSLN. (carbachol reactivity, PC 400) (Ascaris-sensitized sheep [1]; individual sheep): 10.65 breath units and 14.83 breath units
- effect on bronchial hyperresponsiveness (Ascaris-sensitized sheep [1]; inhaled (nebulized), twenty-four hours later, summary of animal studies): continued effect at blocking
- effect on airway hyperresponsiveness (AHR) (Ascaris-sensitized sheep [2]; aerosol 1 mg/kg twice a day for 4 days): protection
- effect on antigen-induced AHR (Ascaris-sensitized sheep [2]; aerosol 2 mg/kg once a day for 4 days): protection
- effect on antigen-induced AHR (Ascaris-sensitized sheep [2]; chronic treatment, aerosol 2 mg/kg once a day for up to 4 weeks): protection
- effect on antigen-induced AHR (Ascaris-sensitized sheep [2]; dose response, aerosol 0.2, 0.6 and 2 mg/kg once a day for 4 days): protection
- effect on antigen-induced AHR (Ascaris-sensitized sheep [2]; p.o. 1 mg/kg twice a day for 4 days): did not protect
